{"source": "paper PMC5897276", "about": "“External radiation exposure, excretion, and effective half-life in ^177Lu-PSMA-targeted therapies” (EJNMMI Research, 2018)", "key": {"[1]": {"assay": "Whole-body dose rate measurement at a distance of 2 m and calculation of effective half-life", "type": "in vivo, patients", "settings": "for Calculated effective half-life T1/2eff, max / Calculated effective half-life T1/2eff, mean / Calculated effective half-life T1/2eff, min: mono-exponential fit of dose rate", "protocol": "The measurements and analyses were carried out with 50 patients from both departments as characterized in Table 1. All patients of Department 2 were released from the hospital 72 h p. i. for organizational reasons. Therefore, dose rate measurements were also available for ti = 72 h p. i.\nIn both departments, the dose rate monitor LB 123 D-H10 (Berthold Technologies, Bad Wildbad, Germany) was used, which is suitable for dose rate levels between 0.05 μSv/h and 10 mSv/h within an energy range from 30 keV to 1.3 MeV. The systems were officially calibrated, and regular quality checks were carried out. The patients were measured in the standing position from the anterior (DRA) and posterior (DRP) view at a distance of 2 m from the surface of the detector. The dose rate DR for different time points (see Table 1) was then calculated as the geometric mean of both measurements5 DRti=DRAti∙DRPti.\n(§1) The data were fitted by a mono-exponential curve, and the effective half-life was calculated for the different time points: 24, 48, and 72 h (only from the data of Department 2). […] For all comparisons, the time point 48 h was chosen as the reference, because it is standard that the patients are released from the therapy ward after 48 h. Subsequently, Eq. 4 was used to determine the dose D to the public after the discharge of the patient for different time points of release (24, 48, and 72 h p. i.), substituting T1/2eff by T1/2ind (individual half-life of each patient), T1/2phys (physical half-life of ^177Lu), and T1/2max (maximum of the calculated effective half-life of the patient cohort) for different calculations. In addition, a correlation analysis (Spearman and Pearson) of the dose rate and administered activity was performed."}, "[2]": {"set-up": "method as in PMID 27089552", "settings": "cited from earlier work; for Mean dose rate at 1 m: 23 patients, 7.5 GBq"}, "[3]": {"assay": "Estimation of dose to the public after discharge of the patient (Eq. 4)", "type": "in vivo, patients", "text": "The determination of the expected dose D to the public requires knowledge of the dose rate DR at the time point of the release of the patient and of the effective half-life T1/2eff. The dose D can then be calculated according to the following equation:4 D=DR∙T1/2eff/ln2.\nThis equation was originally recommended by the German Commission on Radiological Protection to conservatively estimate the dose to the public after iodine-131 therapy.\nas §1"}, "[4]": {"settings": "time point 24.2 ± 0.7 h (from 2 h/4 h and 24 h)"}, "[5]": {"settings": "time point 67.7 ± 2.3 h (72 h; from 24, 48 and 72 h), 25 patients (Department 2)"}, "[6]": {"settings": "time point 45.7 ± 2.1 h p. i. (48 h)"}, "[7]": {"settings": "time point 67.7 ± 2.3 h p. i. (72 h), 25 patients (Department 2)"}, "[8]": {"settings": "discharge 24 h p. i., T1/2ind (value from the 48-h measurement point)"}, "[9]": {"settings": "discharge 72 h p. i., T1/2ind, 25 patients (Department 2)"}, "[10]": {"settings": "discharge 72 h p. i., T1/2max, 25 patients (Department 2)"}, "[11]": {"settings": "discharge 72 h p. i., T1/2phys, 25 patients (Department 2)"}}, "note": "“And” between values parts separate entries of the source, which are not always exact repeats. Identical values can stand only once. Like-named read-outs stand apart in the source and are kept apart here. Marks after values point to notes of the source that are not given here."}
{"smiles": "O=C([O-])CN1CCN(CC(=O)[O-])CCN(CC(=O)NCC2CCC(C(=O)N[C@@H](Cc3ccc4ccccc4c3)C(=O)NCCCC[C@H](NC(=O)N[C@@H](CCC(=O)O)C(=O)O)C(=O)O)CC2)CCN(CC(=O)[O-])CC1.[177Lu+3]", "note": "(stereo partly drawn) [^177Lu-PSMA-617]", "values": [{"measurement": "Calculated effective half-life T1/2eff, max", "setting": "[1]; [4]", "value": 73.5, "unit": "h"}, {"measurement": "Calculated effective half-life T1/2eff, mean", "setting": "[1]; [4]", "value": 26.0, "unit": "h"}, {"measurement": "Calculated effective half-life T1/2eff, min", "setting": "[1]; [4]", "value": 11.0, "unit": "h"}, {"measurement": "Calculated effective half-life T1/2eff, min", "setting": "[1]; time point 45.7 ± 2.1 h (48 h; from 24 h and 48 h)", "value": 21.7, "unit": "h"}, {"measurement": "Calculated effective half-life T1/2eff, max", "setting": "[1]; [5]", "value": "74.5^a h"}, {"measurement": "Calculated effective half-life T1/2eff, mean", "setting": "[1]; [5]", "value": "38.4^a h"}, {"measurement": "Calculated effective half-life T1/2eff, min", "setting": "[1]; [5]", "value": "25.7^a h"}, {"measurement": "Dose rate (measured at a distance of 2 m), max", "setting": "[1]; time point 2 ± 0.3 h p. i.", "value": 5.0, "unit": "μSv/h"}, {"measurement": "Dose rate (measured at a distance of 2 m), mean", "setting": "[1]; time point 2 ± 0.3 h p. i.", "value": "3.6 ± 0.7 μSv/h and 3.6 μSv/h"}, {"measurement": "Dose rate (measured at a distance of 2 m), min", "setting": "[1]; time point 2 ± 0.3 h p. i.", "value": 2.2, "unit": "μSv/h"}, {"measurement": "Dose rate (measured at a distance of 2 m), max", "setting": "[1]; time point 3.9 ± 0.7 h p. i.", "value": 3.8, "unit": "μSv/h"}, {"measurement": "Dose rate (measured at a distance of 2 m), mean", "setting": "[1]; time point 3.9 ± 0.7 h p. i.", "value": 2.8, "unit": "μSv/h"}, {"measurement": "Dose rate (measured at a distance of 2 m), min", "setting": "[1]; time point 3.9 ± 0.7 h p. i.", "value": 1.3, "unit": "μSv/h"}, {"measurement": "Dose rate (measured at a distance of 2 m), mean", "setting": "[1]; time point 24.2 ± 0.7 h p. i.", "value": "1.6 ± 0.6 μSv/h and 1.6 μSv/h"}, {"measurement": "Dose rate (measured at a distance of 2 m), min", "setting": "[1]; time point 24.2 ± 0.7 h p. i.", "value": 0.5, "unit": "μSv/h"}, {"measurement": "Dose rate (measured at a distance of 2 m), max", "setting": "[1]; [6]", "value": 2.3, "unit": "μSv/h"}, {"measurement": "Dose rate (measured at a distance of 2 m), mean", "setting": "[1]; [6]", "value": "1.1 ± 0.5 μSv/h and 1.1 μSv/h"}, {"measurement": "Dose rate (measured at a distance of 2 m), min", "setting": "[1]; [6]", "value": 0.4, "unit": "μSv/h"}, {"measurement": "Dose rate (measured at a distance of 2 m), max", "setting": "[1]; [7]", "value": "2.1^a μSv/h"}, {"measurement": "Dose rate (measured at a distance of 2 m), mean", "setting": "[1]; [7]", "value": "0.7 ± 0.4 μSv/h and 0.7^a μSv/h"}, {"measurement": "Dose rate (measured at a distance of 2 m), min", "setting": "[1]; [7]", "value": "0.1^a μSv/h"}, {"measurement": "Mean dose rate at 1 m", "setting": "[2]; after 4 h", "value": "23 ± 6", "unit": "μSv/h"}, {"measurement": "Mean dose rate at 1 m", "setting": "[2]; after 6 h", "value": "15 ± 4", "unit": "μSv/h"}, {"measurement": "Mean dose received by close family members", "setting": "[2]; measured for 5 days post-injection with optically stimulated luminescence dosimeter, patients released 6 h p. i.", "value": "202 ± 43", "unit": "μSv"}, {"measurement": "Estimated dose to the public after 1 cycle, mean", "setting": "[3]; [8]", "value": "100 μSv and 99 μSv"}, {"measurement": "Estimated dose to the public after 1 cycle, min", "setting": "[3]; [8]", "value": 25, "unit": "μSv"}, {"measurement": "Estimated dose to the public after 1 cycle, max", "setting": "[3]; discharge 24 h p. i., T1/2max", "value": 410, "unit": "μSv"}, {"measurement": "Estimated dose to the public after 1 cycle, mean", "setting": "[3]; discharge 24 h p. i., T1/2max", "value": 208, "unit": "μSv"}, {"measurement": "Estimated dose to the public after 1 cycle, min", "setting": "[3]; discharge 24 h p. i., T1/2max", "value": 75, "unit": "μSv"}, {"measurement": "Estimated dose to the public after 1 cycle, max", "setting": "[3]; discharge 24 h p. i., T1/2phys", "value": 779, "unit": "μSv"}, {"measurement": "Estimated dose to the public after 1 cycle, mean", "setting": "[3]; discharge 24 h p. i., T1/2phys", "value": 396, "unit": "μSv"}, {"measurement": "Estimated dose to the public after 1 cycle, min", "setting": "[3]; discharge 24 h p. i., T1/2phys", "value": 142, "unit": "μSv"}, {"measurement": "Estimated dose to the public after 1 cycle, min", "setting": "[3]; discharge 48 h p. i., T1/2ind", "value": 13, "unit": "μSv"}, {"measurement": "Estimated dose to the public after 1 cycle, max", "setting": "[3]; discharge 48 h p. i., T1/2max", "value": 294, "unit": "μSv"}, {"measurement": "Estimated dose to the public after 1 cycle, mean", "setting": "[3]; discharge 48 h p. i., T1/2max", "value": 139, "unit": "μSv"}, {"measurement": "Estimated dose to the public after 1 cycle, min", "setting": "[3]; discharge 48 h p. i., T1/2max", "value": 49, "unit": "μSv"}, {"measurement": "Estimated dose to the public after 1 cycle, max", "setting": "[3]; discharge 48 h p. i., T1/2phys", "value": 560, "unit": "μSv"}, {"measurement": "Estimated dose to the public after 1 cycle, mean", "setting": "[3]; discharge 48 h p. i., T1/2phys", "value": 263, "unit": "μSv"}, {"measurement": "Estimated dose to the public after 1 cycle, min", "setting": "[3]; discharge 48 h p. i., T1/2phys", "value": 93, "unit": "μSv"}, {"measurement": "Estimated dose to the public after 1 cycle, max", "setting": "[3]; [9]", "value": 204, "unit": "μSv"}, {"measurement": "Estimated dose to the public after 1 cycle, mean", "setting": "[3]; [9]", "value": 50, "unit": "μSv"}, {"measurement": "Estimated dose to the public after 1 cycle, min", "setting": "[3]; [9]", "value": 17, "unit": "μSv"}, {"measurement": "Estimated dose to the public after 1 cycle, max", "setting": "[3]; [10]", "value": 233, "unit": "μSv"}, {"measurement": "Estimated dose to the public after 1 cycle, mean", "setting": "[3]; [10]", "value": 105, "unit": "μSv"}, {"measurement": "Estimated dose to the public after 1 cycle, min", "setting": "[3]; [10]", "value": 49, "unit": "μSv"}, {"measurement": "Estimated dose to the public after 1 cycle, max", "setting": "[3]; [11]", "value": 443, "unit": "μSv"}, {"measurement": "Estimated dose to the public after 1 cycle, mean", "setting": "[3]; [11]", "value": 200, "unit": "μSv"}, {"measurement": "Estimated dose to the public after 1 cycle, min", "setting": "[3]; [11]", "value": 93, "unit": "μSv"}, {"measurement": "Expected dose to the public per cycle of therapy", "setting": "[3]; human, in vivo", "value": "below 1 mSv"}, {"measurement": "Maximum dose to individual members of the public per treatment cycle", "setting": "[3]; patient discharged after 72 h", "value": "~ 190 ± 36 μSv"}, {"measurement": "Estimated dose to the public per cycle", "setting": "[3]; physical half-life of lutetium-177 used for the calculation (conservative approach)", "value": "below 1 mSv"}]}
